From US20200268835A1, “Compounds For Use in NASH” (Novo Nordisk A/S, priority 2019, published 2020)
Numbered stars: 1 amine (or outer) side, 2 acyl side, 3 side chain; on linkers, the order of the positions; unused ones are H or OH. Square brackets hold non-standard residues; d marks the D form. Side chains are listed from the residue outwards. Peptide text beside a SMILES is read from it. * marks the point of attachment. C18 diacid = O=C(O)CCCCCCCCCCCCCCCCC(=O)*; γGlu = O=C(O)[C@H](CCC(=O)[*:2])N[*:1]; Ac4c = NC1(C(=O)O)CCC1; AEEA = NCCOCCOCC(=O)O; Aib = CC(C)(N)C(=O)O

Assays:
human GLP-1 receptor = molecular target: T1, human GLP-1 receptor (Homo sapiens, UniProt P43220); test: GLP-1 receptor SPA binding assay; settings: 0% HSA; BHK cell membranes; displacement of [125I]-GLP-1(7-36)-NH2; read-out: Human GLP1 R SPA binding 0% HSA IC50
T1 construct: expressed in transfected cells; membrane preparation
T1 sequence (P43220 24-463): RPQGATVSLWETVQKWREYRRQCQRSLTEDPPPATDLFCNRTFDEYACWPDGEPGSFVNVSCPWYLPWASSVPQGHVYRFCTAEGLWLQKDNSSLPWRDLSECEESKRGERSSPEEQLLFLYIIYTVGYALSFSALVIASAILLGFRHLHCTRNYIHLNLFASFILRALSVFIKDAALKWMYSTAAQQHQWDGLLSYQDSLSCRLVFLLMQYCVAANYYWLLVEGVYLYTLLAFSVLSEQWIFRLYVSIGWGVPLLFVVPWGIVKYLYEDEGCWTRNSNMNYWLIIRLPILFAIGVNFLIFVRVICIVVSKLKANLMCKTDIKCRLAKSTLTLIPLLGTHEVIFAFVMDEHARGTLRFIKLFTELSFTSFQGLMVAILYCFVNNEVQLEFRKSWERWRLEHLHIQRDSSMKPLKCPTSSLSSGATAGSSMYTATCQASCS
From the text: (§1) In one embodiment affinity refers to in vitro binding affinity, i.e. performance in a GLP-1 receptor binding affinity assay and in a glucagon receptor binding affinity assay, more particularly to the capability of binding the human GLP-1 receptor and to the human glucagon receptor. The binding affinity of the human GLP-1 receptor may be measured in a binding assay, e.g. in a stably transfected BHK cell line that expresses the human GLP-1 receptor. Radioactively labelled GLP-1 binds to the receptor and may be displaced competitvely by a compound. Binding of radioligand may be determined in the presence of scintillation proximity assay (SPA) beads which bind to cell membranes and when radioactivity is close to the bead it produces light which is measured and is a measure of the in vitro binding affinity. […] The binding affinity of the human glucagon receptor may be measured in a binding affinity assay, e.g. in a stably transfected BHK cell line that expresses the human glucagon receptor. […] Binding of radioligand may be determined in the presence of scintillation proximity assay (SPA) beads which bind to cell membranes and when radioactivity is close to the bead it produces light which is measured and is a measure of the in vitro binding affinity. […] The protein concentration was subsequently determined, and the membranes were stored at −80° C. until use. […]

[1] = Plasma alanine transferase levels in diet-induced NASH mice; type: in vivo, male C57BL/6 mice; settings: after 56 days of treatment, SC once daily; FIG. 3
Protocol: (§2) At 5 weeks of age, male C57BL/6 mice were purchased from JanVier, France. During the acclimatization and diet-induction period, the mice were group housed ten per cage in custom-made cabinets under a 12:12 light dark cycle (lights on from 3 AM-3 PM) at controlled temperature conditions (22±1° C.; 50±10% relative humidity). Throughout the diet-induction the mice had ad libitum access to AMLN diet (D09100301, Research Diet, USA) (40% fat (18% trans-fat), 40% carbohydrates (20% fructose) and 2% cholesterol) or regular rodent chow (chow vehicle group) (Altromin 1324, Brogaarden, Denmark) and tap water. Throughout the study period the mice had ad libitum access to AMLN diet, except the weight-matched group which was food restricted to lower the body weight to the same level as for animals receiving compound A or compound B, or regular rodent chow (chow vehicle group) and tap water. […]
(§3) During the diet-induction period, body weight was intermittently monitored. […]
Animal experiments were conducted as described in the section “General Methods of Animal Experiments”. […] All parameters are measured in single determinations using autoanalyzer Cobas C-111 with commercial kit (Roche Diagnostics, Germany) according to the manufacturer's instructions. Data are expressed as mean±SEM (NASH groups n=11-12, Chow Vehicle group n=10). […]

human glucagon receptor = molecular target: T2, human glucagon receptor (Homo sapiens, UniProt P47871); test: Glucagon receptor SPA binding assay; settings: 0% HSA; BHK cell membranes; displacement of [125I]-glucagon; read-out: Human GCG R SPA binding 0% HSA IC50
T2 construct: expressed in transfected cells; membrane preparation
T2 sequence (P47871 26-477): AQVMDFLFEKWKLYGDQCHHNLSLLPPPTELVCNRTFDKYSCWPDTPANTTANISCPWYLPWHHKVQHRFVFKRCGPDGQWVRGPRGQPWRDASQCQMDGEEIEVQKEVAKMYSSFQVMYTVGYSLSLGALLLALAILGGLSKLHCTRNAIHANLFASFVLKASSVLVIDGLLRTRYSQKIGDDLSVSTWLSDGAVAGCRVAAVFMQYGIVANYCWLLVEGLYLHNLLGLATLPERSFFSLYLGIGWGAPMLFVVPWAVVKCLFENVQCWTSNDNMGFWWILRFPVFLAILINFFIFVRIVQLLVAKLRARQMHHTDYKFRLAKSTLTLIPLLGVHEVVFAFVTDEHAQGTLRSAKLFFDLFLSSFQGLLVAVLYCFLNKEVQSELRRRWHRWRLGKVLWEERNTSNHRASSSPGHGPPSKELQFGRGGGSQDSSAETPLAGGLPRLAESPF
From the text: as §1

[2] = Hepatic terminal triglycerides and cholesterol content in diet-induced NASH mice; type: in vivo, male C57BL/6 mice; settings: after 56 days of treatment; FIG. 5A
Protocol: as §2, §3
Animal experiments were conducted as described in the section “General Methods of Animal Experiments”. Triglycerides and total cholesterol content in liver homogenates were measured in single determinations using autoanalyzer Cobas C-111 with commercial kit (Roche Diagnostics, Germany) according to manufacturer's instructions. […]

| IC50 (human GLP-1 receptor) [nM] | IC50 (human glucagon receptor) [nM] | SMILES | effect on plasma ALT levels compared with the weight-matched (WM) group [1] | effect on liver triglyceride levels compared with the weight-matched (WM) group [2] |
| --- | --- | --- | --- | --- |
| 0.3 | 1.4 | CC(C)C[C@H](NC(=O)[C@H](Cc1ccc(O)cc1)NC(=O)[C@H](CCCCN)NC(=O)[C@H](CO)NC(=O)[C@H](CC(C)C)NC(=O)[C@H](CC(=O)O)NC(=O)[C@H](CO)NC(=O)[C@@H](NC(=O)[C@H](Cc1ccccc1)NC(=O)[C@@H](NC(=O)CNC(=O)[C@H](CCC(N)=O)NC(=O)C(C)(C)NC(=O)[C@@H](N)Cc1c[nH]cn1)[C@@H](C)O)[C@@H](C)O)C(=O)N[C@@H](CCC(=O)O)C(=O)N[C@@H](CO)C(=O)N[C@@H](CCCCN)C(=O)N[C@@H](CCCNC(=N)N)C(=O)N[C@@H](C)C(=O)N[C@@H](CCCNC(=N)N)C(=O)N[C@@H](CCC(=O)O)C(=O)N[C@@H](Cc1ccccc1)C(=O)N[C@H](C(=O)N[C@@H](CCC(N)=O)C(=O)N[C@@H](Cc1c[nH]c2ccccc12)C(=O)N[C@@H](CC(C)C)C(=O)N[C@@H](CC(C)C)C(=O)N[C@@H](CCCCNC(=O)CC[C@H](NC(=O)CC[C@H](NC(=O)[C@H](CO)NC(=O)[C@H](CCC(=O)O)NC(=O)[C@H](CO)NC(=O)CC[C@H](NC(=O)CC[C@H](NC(=O)CCCCCCCCCCCCCCCCC(=O)O)C(=O)O)C(=O)O)C(=O)O)C(=O)O)C(=O)N[C@H](C(N)=O)[C@@H](C)O)C(C)C [Compound A, N^ε28-[(4S)-4-carboxy-4-[[(4S)-4-carboxy-4-[[(2S)-2-[[(2S)-4-carboxy-2-[[(2S)-2-[[(4S)-4-carboxy-4-[[(4S)-4-carboxy-4-(17-carboxyheptadecanoylamino)butanoyl]amino]butanoyl]amino]-3-hydroxypropanoyl]amino]butanoyl]amino]-3-hydroxypropanoyl]amino]butanoyl]amino]butanoyl]-[Aib2,Leu10,Glu15,Lys17,Arg20,Glu21,Leu27,Lys28]-Glucagon amide] (H-H[Aib]QGTFTSDLSKYLESKRAREFVQWLLK([γGlu-γGlu-Ser-Glu-Ser-γGlu-γGlu-C18 diacid])T-NH2) | the observed effect is bigger | the observed effect is bigger |
| 1.6 | 0.8 | CC(C)C[C@H](NC(=O)[C@H](CC(=O)O)NC(=O)[C@H](CC(C)C)NC(=O)[C@H](Cc1ccc(O)cc1)NC(=O)[C@H](CCCCN)NC(=O)[C@H](CO)NC(=O)[C@H](CC(C)C)NC(=O)[C@H](CC(=O)O)NC(=O)[C@H](CO)NC(=O)[C@@H](NC(=O)[C@H](Cc1ccccc1)NC(=O)[C@@H](NC(=O)CNC(=O)[C@H](CCC(N)=O)NC(=O)C1(NC(=O)[C@@H](N)Cc2c[nH]cn2)CCC1)[C@@H](C)O)[C@@H](C)O)C(=O)N[C@@H](CCCNC(=N)N)C(=O)N[C@@H](CCCNC(=N)N)C(=O)N[C@@H](C)C(=O)N[C@@H](CCCNC(=N)N)C(=O)N[C@@H](CC(=O)O)C(=O)N[C@@H](Cc1ccccc1)C(=O)N[C@H](C(=O)N[C@@H](CCC(N)=O)C(=O)N[C@@H](Cc1c[nH]c2ccccc12)C(=O)N[C@@H](CC(C)C)C(=O)N[C@@H](CC(C)C)C(=O)N[C@@H](CCCCNC(=O)CC[C@H](NC(=O)CC[C@H](NC(=O)COCCOCCNC(=O)COCCOCCNC(=O)CC[C@H](NC(=O)CC[C@H](NC(=O)CCCCCCCCCCCCCCCCC(=O)O)C(=O)O)C(=O)O)C(=O)O)C(=O)O)C(=O)N[C@H](C(N)=O)[C@@H](C)O)C(C)C [Compound B, N^ε28-[(4S)-4-carboxy-4-[[(4S)-4-carboxy-4-[[2-[2-[2-[[2-[2-[2-[[(4S)-4-carboxy-4-[[(4S)-4-carboxy-4-(17-carboxyheptadecanoylamino)butanoyl]amino]butanoyl]amino]ethoxy]ethoxy]acetyl]amino]ethoxy]ethoxy]acetyl]amino]butanoyl]amino]butanoyl]-[Acb2,Leu10,Leu16,Arg20,Leu27,Lys28]-Glucagon amide] (H-H[Ac4c]QGTFTSDLSKYLDLRRARDFVQWLLK([γGlu-γGlu-AEEA-AEEA-γGlu-γGlu-C18 diacid])T-NH2) | the observed effect is bigger | the observed effect is bigger |
